Consider 11 molecules from the NIST ThermoML archive (doi:10.1016/j.tca.2013.06.022).

The structures appear in SMILES notation. Numbers after ± are expanded uncertainties.

For the data set the following is noted: for Normal melting temperature: Crystal.

As for `C=CC[n+]1cccc(C)c1.[Cl-]` [1-allyl-3-methylpyridinium chloride], the Normal melting temperature (visual observation) turned out to be 108.00 ± 5 °C. Besides, the Glass transition temperature (DTA) was found to be 27.50 ± 5 °C.
In the case of `CCCC[n+]1cccc(C)c1.[Cl-]` [1-butyl-3-methylpyridinium chloride], the Normal melting temperature runs as follows: (DTA) 93.00 ± 5 °C; (visual observation) 97.00 ± 5 °C. In addition, under “DTA”, the Glass transition temperature was determined as 35.00 ± 5 °C.
Regarding `CCCCCCCCCC[n+]1cccc(C)c1.[Cl-]` [1-decyl-3-methylpyridinium chloride], the Normal melting temperature is 55.00 ± 5 °C (DTA) and 64.00 ± 5 °C (visual observation).
For `CC[n+]1cccc(C)c1.[Br-]` [1-ethyl-3-methylpyridinium bromide] the same measures were 146.00 ± 5 °C and 163.00 ± 5 °C.
Take `CC[n+]1cccc(C)c1.[Cl-]` [1-ethyl-3-methylpyridinium chloride]: the Normal melting temperature (visual observation) was found to be 130.00 ± 5 °C. Besides, the Glass transition temperature (DTA) was determined as 29.00 ± 5 °C.
The corresponding values for `CCCCCCC[n+]1cccc(C)c1.[Cl-]` [1-heptyl-3-methylpyridinium chloride] are 72.00 ± 5 °C and 16.50 ± 5 °C.
On to `CCCCCC[n+]1cccc(C)c1.[Cl-]` [1-hexyl-3-methylpyridinium chloride], for which the Normal melting temperature (DTA) is 62.00 ± 5 °C and the Normal melting temperature (visual observation) worked out at 77.00 ± 5 °C.
Regarding `CCCCCCCCC[n+]1cccc(C)c1.[Cl-]` [1-nonyl-3-methylpyridinium chloride], under “visual observation”, the Normal melting temperature turned out to be 64.00 ± 5 °C.
Consider `CCCCCCCC[n+]1cccc(C)c1.[Cl-]` [1-octyl-3-methylpyridinium chloride], for which the Normal melting temperature (DTA) came to 69.00 ± 5 °C and the Normal melting temperature (visual observation) turned out to be 74.00 ± 5 °C.
Turning to `CCCCC[n+]1cccc(C)c1.[Cl-]` [1-pentyl-3-methylpyridinium chloride], the Normal melting temperature (visual observation) amounted to 92.00 ± 5 °C. Further, the Glass transition temperature (DTA) was determined as 21.50 ± 5 °C.
For `CCC[n+]1cccc(C)c1.[Cl-]` [1-propyl-3-methylpyridinium chloride] the same measures were 92.00 ± 5 °C and 18.50 ± 5 °C.
